Assay results: patent publication US12459921B2, “Isoindoline compound, preparation method, pharmaceutical composition and use thereof” (SHANGHAI INSTITUTE OF MATERIA MEDICA, CHINESE ACADEMY OF …, priority 2018, dated 2025)
Read-outs that look alike come from different tables or passages of the source.

What was measured:
[1] = system: MM.1S cells; assay: Inhibitory effect on the proliferation of MM.1S, MTS cell viability test; format: cell-based; details: multiple myeloma MM.1S cells, 7 days incubation, read-out: Tumor cell inhibitory activity
Outline: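 MM.1S cells (20,000/well, RPMI 1640 with 10% FBS) exposed to 5-fold compound dilutions at 0.2% DMSO for 7 days at 37° C, 5% CO2. MTS added for 3-4 h; OD490-OD690 gave inhibition versus DMSO, IC50 fitted, mean of three experiments.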

[2] = system: MV-4-11 cells; assay: Inhibitory effect on the proliferation of MV-4-11 cells, MTS cell viability test; format: cell-based; details: acute leukemia MV-4-11 cells, 7 days incubation, read-out: Tumor cell inhibitory activity
Procedure: Method of tumor cell proliferation inhibition test: the inventors tested all the example compounds on hematologic tumor cells, multiple myeloma MMTs cell line and acute leukemia cell MV-4-11 cell line of some examples. The activity test method and results are as follows.
2. The Inhibitory Effect of Compounds on the Proliferation of MV-4-11 Cells, MTS Cell Viability Test: 1). Experimental Method:
MV-4-11 cells were cultured and collected with IMDM and 10% fetal bovine serum. The cell concentration was diluted according to 7 days, and 180 ul of cell suspension was added to each well of a 96-well cell plate to 2000 cells. 20 ul of DMSO with a final concentration of 0.2% was added to the control wells. The compound was diluted 5-fold from the 10 mM stock solution, and 20 ul was also added to the compound cell wells (the final concentration of DMSO was 0.2%). The cells were placed in a 37° C., 5% CO2 incubator and incubated for 7 days. After the reaction solution was prepared according to the MTS kit (Promega, G5430), 20 μL was added to each well, incubated in a 37° C., 5% CO2 incubator for 3-4 h. The 490 nm absorbance value was read with a microtiter plate, and the 690 nm absorbance value was used as the background value. OD490-OD690 was used as the final initial data. The formula for calculating the inhibition rate of the compound was: inhibition rate=(ODDMSO-ODcompound)/(ODDMSO-Oblank)×100%. The compound's proliferation inhibition IC50 was fitted by Graph Pad Prism 5.0. The experiment was repeated three times, and the average and standard deviation was calculated according to three parallel experiments each time.

Row | IC50 ([1]; Homo sapiens, MM1.S, 168 h) [nM] | IC50 ([2]; Homo sapiens, MV4-11, 168 h) [nM] | IC50 [1] [nM] | IC50 [2] [nM] | SMILES
1 | < 100 | > 20000 |  |  | Cc1nc2cccc(N)c2c(=O)n1C1CCC(=O)NC1=O (stereo not shown) [CC-122, reference compound]
2 | < 100 | > 20000 |  |  | Nc1cccc2c1C(=O)N(C1CCC(=O)NC1=O)C2=O (stereo not shown) [Pomalidomide, pomalidomide, reference compound]
3 | 100 to 1000 | 480 |  |  | O=C1CCC(N2Cc3c(CCCCCN4CCN(c5c(Cl)cccc5Cl)CC4)cccc3C2=O)C(=O)N1 (stereo not shown) [Example 235, 3-(4-(5-(4-(2,6-dichlorophenyl)piperazine-1-yl)pentyl)-1-oxoisoindoline-2-yl)piperidine-2,6-dione]
4 | 100 to 1000 | 220 |  |  | O=C1CCC(N2Cc3c(CCCCCN4CCc5ccc(Br)cc54)cccc3C2=O)C(=O)N1 (stereo not shown) [Example 114, 3-(4-(5-(5-bromoindoline-1-)pentyl)-1-oxoisoindoline-2-)piperidine-2,6-dione]
5 | < 100 | 180 |  |  | O=C1CCC(N2Cc3c(CCCCCN4CCc5ccccc54)cccc3C2=O)C(=O)N1 (stereo not shown) [Example 107, 3-(4-(5-(indoline-1-)pentyl)-1-oxoisoindoline-2-)piperidine-2,6-dione]
6 | 100 to 1000 | 200 |  |  | CC(=O)N[C@@H](CCCc1cccc2c1CN(C1CCC(=O)NC1=O)C2=O)C(=O)NCc1ccccc1 (stereo partly drawn) [Example 166, (2S)-2-acetylamino-N-benzyl-5-(2-(2,6-dioxopiperidine-3-)-1-oxoisoindoline-4-)pentanamide]
7 | < 100 | 14 |  |  | Cc1ccc(NC(=O)CCCOc2cccc3c2CN(C2CCC(=O)NC2=O)C3=O)cc1Cl (stereo not shown) [Example 158, N-(3-chloro-4-methylphenyl)-4-((2-(2,6-dioxopiperidine-3-)-1-oxoisoindoline-4-)oxy)butanamide]
8 | < 100 | 17 |  |  | CC(=O)N[C@@H](CCCc1cccc2c1CN(C1CCC(=O)NC1=O)C2=O)C(=O)NCc1cccc(Br)c1 (stereo partly drawn) [Example 182, (2S)-2-acetylamino-N-(3-bromobenzyl)-5-(2-(2,6-dioxopiperidine-3-)-1-oxoisoindoline-4-)pentanamide]
9 | < 100 | > 20000 |  |  | O=C1CCC(N2Cc3c(OCc4ccc(CN5CCOCC5)cc4)cccc3C2=O)C(=O)N1 (stereo not shown) [CC-220, reference compound]
10 | 100 to 1000 | > 20000 |  |  | Nc1cccc2c1CN(C1CCC(=O)NC1=O)C2=O (stereo not shown) [Lenalidomide, lenalidomide, reference compound]
11 | < 100 | 600 |  |  | O=C1CCC(N2Cc3c(CCCCN4CCN(c5cccc6ccsc56)CC4)cccc3C2=O)C(=O)N1 (stereo not shown) [Example 221, 3-(4-(4-(4-(benzothiophene-7-yl)piperazin-1-yl)butyl)-1-oxoisoindoline-2-yl)piperidine-2,6-dione]
12 |  |  | 1000 to 20000 | 510 | O=C1CCC(N2Cc3c(CCCCCN4CCC(c5noc6cc(F)ccc56)CC4)cccc3C2=O)C(=O)N1 (stereo not shown) [Example 226, 3-(4-(5-(4-(6-fluorobenzisoxazole-3-yl)piperidin-1-yl)pentyl)-1-oxoisoindoline-2-yl)piperidine-2,6-]
13 | < 100 | 35 |  |  | CC(C)C(=O)N[C@@H](CCCc1cccc2c1CN(C1CCC(=O)NC1=O)C2=O)C(=O)NCc1ccccc1 (stereo partly drawn) [Example 167, (2S)-N-benzyl-5-(2-(2,6-dioxopiperidine-3-)-1-oxoisoindoline-4-)-2-iso butyramidopentaneamide]
14 |  |  | < 100 | 110 | O=C1CCC(N2Cc3c(CCCCCN4CCC(c5noc6cc(F)ccc56)CC4)cccc3C2=O)C(=O)N1 (stereo not shown) [Example 22, 3-(4-(5-(4-(6-fluorobenzo[d]isoxazole-3-)piperidine-1-)pentyl)-1-oxoisoindoline-2-)piperidine-2,6-dione]
15 | < 100 | 250 |  |  | CC(=O)N[C@@H](CCCc1cccc2c1CN(C1CCC(=O)NC1=O)C2=O)C(=O)Nc1ccccc1 (stereo partly drawn) [Example 164, (2S)-2-acetylamino-5-(2-(2,6-dioxopiperidine-3-)-1-oxoisoindoline-4-)-N-phenylpentanamide]
16 | < 100 | 29 |  |  | O=C1CCC(N2Cc3c(CCC[C@H](NC(=O)C4CCC4)C(=O)NCc4ccccc4)cccc3C2=O)C(=O)N1 (stereo partly drawn) [Example 173, N-((2S)-1-(benzylamine)-5-(2-(2,6-dioxopiperidine-3-)-1-oxoisoindoline-4-)-1-oxopentyl-2-)cyclobutylcarboxamide]

Row | SMILES | IC50 ([1]; Homo sapiens, MM1.S, 168 h) [nM] | IC50 ([2]; Homo sapiens, MV4-11, 168 h) [nM] | IC50 [1] [nM] | IC50 [2] [nM]
17 | O=C1CCC(N2Cc3c(CCCCCN4CCC5(CC4)C(=O)Nc4cc(Cl)ccc45)cccc3C2=O)C(=O)N1 (stereo not shown) [Example 275, 3-(4-(5-(6-chloro-2-oxospiro[dihydroindole-3,4-piperidin]-1-yl)pentyl)-1-oxoisoindoline-2-yl)piperidine-2,6-dione] | 100 to 1000 | 630 |  | 
18 | N#CC1(c2cc(Cl)ccc2Cl)CCN(CCCCCc2cccc3c2CN(C2CCC(=O)NC2=O)C3=O)CC1 (stereo not shown) [Example 248, 4-(2,5-dichlorophenyl)-1-(5-(2-(2,6-dioxopiperidine-3-yl)-1-oxoisoindoline-4-yl)pentyl)piperidine-4-carbonitrile] | 1000 to 20000 | 660 |  | 
19 | O=C1CCC(N2Cc3c(CCCCCN4CCC5(CCc6ccccc65)CC4)cccc3C2=O)C(=O)N1 (stereo not shown) [Example 143, 3-(4-(5-(2,3-dihydrospiro[indene-1,4′-piperidine]-1′-)pentyl)-1-oxoisoindoline-2-)piperidine-2,6-dione] | < 100 | 610 |  | 
20 | N#CC1(c2cccc(Cl)c2)CCN(CCCCCc2cccc3c2CN(C2CCC(=O)NC2=O)C3=O)CC1 (stereo not shown) [Example 51, 4-(3-chlorophenyl)-1-(5-(2-(2,6-dioxopiperidine-3-)-1-oxoisoindoline-4-)pentyl) piperidine-4-carbonitrile] | < 100 | 570 |  | 
